Measured values: the Kinase Knowledgebase extract (Sharma et al. 2016)

Biological target: CDK2 (UniProt P24941)
Assay: Enzyme Assay
Conditions: concentration not given here

| Structure (SMILES) | inhibition |
| --- | --- |
| O=C(Nc1n[nH]c2ccc(NS(=O)(=O)c3cc(F)cc(F)c3)cc12)c1ccccc1 | 82% |
| CC(C)c1ccc(-c2n[nH]c3ccc(NS(=O)(=O)c4ccccc4S(C)(=O)=O)cc23)cc1 | 24% |
| Nc1n[nH]c2ccc(NS(=O)(=O)c3c(Cl)cccc3Cl)cc12 | 18% |
| COc1cccc(S(=O)(=O)Nc2ccc3[nH]nc(-c4ccccc4)c3c2)c1 | 68% |
| CS(=O)(=O)c1ccccc1S(=O)(=O)Nc1ccc2[nH]nc(NCc3ccccc3)c2c1 | 92% |
| CS(=O)(=O)c1ccccc1S(=O)(=O)Nc1ccc2[nH]nc(-c3ccc(Br)cc3)c2c1 | 75% |
| Nc1n[nH]c2ccc(NS(=O)(=O)c3cccc(F)c3)cc12 | 34% |
| CS(=O)(=O)c1ccccc1S(=O)(=O)Nc1ccc2[nH]nc(-c3cccc([N+](=O)[O-])c3)c2c1 | 82% |
| Cc1ccc(-c2n[nH]c3ccc(NS(=O)(=O)c4ccccc4S(C)(=O)=O)cc23)cc1C | 75% |
| Cc1cc2[nH]nc(-c3ccccc3)c2cc1NS(=O)(=O)c1ccccc1S(C)(=O)=O | 62% |
| CS(=O)(=O)c1ccccc1S(=O)(=O)Nc1ccc2[nH]nc(-c3cc(Cl)ccc3Cl)c2c1 | 27% |
| O=S(=O)(Nc1ccc2[nH]nc(-c3ccccc3)c2c1)c1ccccc1 | 84% |
| CS(=O)(=O)c1ccccc1S(=O)(=O)Nc1ccc2[nH]nc(/C=C/c3ccccc3)c2c1 | 96% |
| CS(=O)(=O)c1ccccc1S(=O)(=O)Nc1ccc2[nH]nc(Sc3ccccc3)c2c1 | 82% |
| Cc1cc(C)c(S(=O)(=O)Nc2ccc3[nH]nc(-c4ccccc4)c3c2)c(C)c1 | 79% |
| CCc1ccc(-c2n[nH]c3ccc(NS(=O)(=O)c4ccccc4S(C)(=O)=O)cc23)cc1 | 65% |
| CN(C)c1ccc(-c2n[nH]c3ccc(NS(=O)(=O)c4ccccc4S(C)(=O)=O)cc23)cc1 | 81% |
| CS(=O)(=O)c1ccccc1S(=O)(=O)Nc1ccc2[nH]nc(-c3ccc(Cl)s3)c2c1 | 55% |
| CSc1ccccc1-c1n[nH]c2ccc(NS(=O)(=O)c3ccccc3S(C)(=O)=O)cc12 | 19% |
| COc1ccc(-c2n[nH]c3ccc(NS(=O)(=O)c4ccccc4S(C)(=O)=O)cc23)c(OC)c1 | 27% |
| O=S(=O)(Nc1ccc2[nH]nc(-c3ccccc3)c2c1)c1cccc2cccnc12 | 99% |
| O=S(=O)(Nc1ccc2[nH]nc(-c3cc4ccccc4[nH]3)c2c1)c1ccccc1 | 100% |
| O=S(=O)(Nc1ccc2[nH]nc(-c3ccccc3)c2c1)c1cc(F)cc(F)c1 | 68% |

| Structure (SMILES) | inhibition |
| --- | --- |
| CS(=O)(=O)c1ccccc1S(=O)(=O)Nc1ccc2[nH]nc(-c3cc4ccccc4s3)c2c1 | 63% |
| CS(=O)(=O)c1ccccc1S(=O)(=O)Nc1ccc2[nH]nc(-c3cc4cccnc4[nH]3)c2c1 | 0% |
| CC(C)c1cccc(-c2n[nH]c3ccc(NS(=O)(=O)c4ccccc4S(C)(=O)=O)cc23)c1 | 59% |
| CS(=O)(=O)c1ccccc1S(=O)(=O)Nc1ccc2[nH]nc(-c3ccc(N)cc3)c2c1 | 85% |
| N#Cc1cccc(S(=O)(=O)Nc2ccc3[nH]nc(-c4ccccc4)c3c2)c1 | 75% |
| CS(=O)(=O)c1ccccc1S(=O)(=O)Nc1ccc2[nH]nc(-c3ccc4c(c3)OCO4)c2c1 | 76% |
| CS(=O)(=O)c1ccccc1S(=O)(=O)Nc1ccc2[nH]nc(-c3ccc(OCc4ccccc4)c(F)c3)c2c1 | 41% |
| CS(=O)(=O)c1ccccc1S(=O)(=O)Nc1ccc2[nH]nc(-c3ccc(F)c(F)c3)c2c1 | 72% |
| CS(=O)(=O)c1ccccc1S(=O)(=O)Nc1ccc2[nH]nc(-c3ccc(Oc4ccccc4)cc3)c2c1 | 20% |
| CS(=O)(=O)c1ccccc1S(=O)(=O)Nc1ccc2[nH]nc(-c3cccc(F)c3F)c2c1 | 50% |
| CS(=O)(=O)c1ccccc1S(=O)(=O)Nc1ccc2[nH]nc(-c3ccc(-c4ccccc4)cc3)c2c1 | 41% |
| CS(=O)(=O)c1ccccc1S(=O)(=O)Nc1ccc2[nH]nc(-c3ccc(C(=O)O)cc3)c2c1 | 61% |
| O=S(=O)(Nc1ccc2[nH]nc(-c3ccc(O)cc3)c2c1)c1ccccc1 | 89% |
| COc1ccc(-c2n[nH]c3ccc(NS(=O)(=O)c4ccccc4S(C)(=O)=O)cc23)cc1 | 93% |
| COc1cccc(-c2n[nH]c3ccc(NS(=O)(=O)c4ccccc4S(C)(=O)=O)cc23)c1 | 67% |
| N#Cc1ccccc1S(=O)(=O)Nc1ccc2[nH]nc(-c3ccccc3)c2c1 | 69% |
| CS(=O)(=O)c1ccccc1S(=O)(=O)Nc1ccc2[nH]nc(-c3ccc(CO)cc3)c2c1 | 73% |
| CS(=O)(=O)c1ccccc1S(=O)(=O)Nc1ccc2[nH]nc(-c3cc(Br)cc(Br)c3)c2c1 | 45% |
| CC1(C)[C@H]2CC[C@]1(CS(=O)(=O)Nc1ccc3[nH]nc(-c4ccccc4)c3c1)C(=O)C2 | 30% |
| CS(=O)(=O)c1ccccc1S(=O)(=O)Nc1ccc2[nH]nc(-c3ccccc3N)c2c1 | 50% |
| CCOc1ccccc1-c1n[nH]c2ccc(NS(=O)(=O)c3ccccc3S(C)(=O)=O)cc12 | 31% |
| CS(=O)(=O)c1ccccc1S(=O)(=O)Nc1ccc2[nH]nc(-c3ccccc3F)c2c1 | 61% |
| CC(=O)Nc1n[nH]c2ccc(NS(=O)(=O)c3cc(F)cc(F)c3)cc12 | 82% |

| Structure (SMILES) | inhibition |
| --- | --- |
| CS(=O)(=O)c1ccccc1S(=O)(=O)Nc1ccc2[nH]nc(-c3ccc(Br)cc3F)c2c1 | 65% |
| Cc1cc(-c2n[nH]c3ccc(NS(=O)(=O)c4ccccc4S(C)(=O)=O)cc23)ccc1F | 66% |
| CS(=O)(=O)c1ccccc1S(=O)(=O)Nc1ccc2[nH]nc(-c3nc4ccccc4[nH]3)c2c1 | 99% |
| CS(=O)(=O)c1ccc(F)cc1S(=O)(=O)Nc1ccc2[nH]nc(-c3ccccc3)c2c1 | 87% |
| CS(=O)(=O)c1ccccc1S(=O)(=O)Nc1ccc2[nH]nc(-c3ccc(Cl)cc3Cl)c2c1 | 23% |
| CS(=O)(=O)c1ccccc1S(=O)(=O)Nc1ccc2[nH]nc(-c3ccco3)c2c1 | 76% |
| CS(=O)(=O)c1ccccc1S(=O)(=O)Nc1ccc2[nH]nc(-c3ccc[nH]3)c2c1 | 99% |
| CS(=O)(=O)c1ccccc1S(=O)(=O)Nc1ccc2[nH]nc(-c3ccc(C(F)(F)F)cc3)c2c1 | 83% |
| Cc1ccc(-c2n[nH]c3ccc(NS(=O)(=O)c4ccccc4S(C)(=O)=O)cc23)cc1N | 78% |
| COc1ccccc1-c1n[nH]c2ccc(NS(=O)(=O)c3ccccc3S(C)(=O)=O)cc12 | 50% |
| CC(C)c1cc(C(C)C)c(S(=O)(=O)Nc2ccc3[nH]nc(-c4ccccc4)c3c2)c(C(C)C)c1 | 50% |
| O=S(=O)(Nc1ccc2[nH]nc(-c3ccccc3)c2c1)c1ccc(F)c(F)c1 | 67% |
| Nc1cc(Cl)cc(Cl)c1S(=O)(=O)Nc1ccc2[nH]nc(-c3ccccc3)c2c1 | 58% |
| CS(=O)(=O)c1ccccc1S(=O)(=O)Nc1ccc2[nH]nc(-c3ccncc3)c2c1 | 87% |
| Nc1ccc(S(=O)(=O)Nc2ccc3[nH]nc(-c4ccccc4)c3c2)cc1 | 70% |
| CS(=O)(=O)c1ccccc1S(=O)(=O)Nc1ccc2[nH]nc(-c3cccc(N)c3)c2c1 | 88% |
| CS(=O)(=O)c1ccccc1S(=O)(=O)Nc1ccc2[nH]nc(-c3cc(F)cc(F)c3)c2c1 | 74% |
| CS(=O)(=O)c1ccccc1S(=O)(=O)Nc1ccc2[nH]nc(-c3ccc(Cl)c(Cl)c3)c2c1 | 66% |
| CC(=O)Nc1n[nH]c2ccc(NS(=O)(=O)c3ccccc3S(C)(=O)=O)cc12 | 96% |
| Nc1n[nH]c2ccc(NS(=O)(=O)c3cc(F)cc(F)c3)cc12 | 0% |
| CS(=O)(=O)c1ccccc1S(=O)(=O)Nc1ccc2[nH]nc(NC(=O)c3ccccc3)c2c1 | 95% |
| O=S(=O)(Nc1ccc2[nH]nc(-c3cc4ccccc4[nH]3)c2c1)c1cccc(F)c1 | 99% |
| O=S(=O)(Nc1ccc2[nH]nc(-c3ccccc3)c2c1)c1ccccc1F | 81% |

| Structure (SMILES) | inhibition |
| --- | --- |
| Cc1cc(C)cc(-c2n[nH]c3ccc(NS(=O)(=O)c4ccccc4S(C)(=O)=O)cc23)c1 | 72% |
| CS(=O)(=O)c1ccccc1S(=O)(=O)Nc1ccc2[nH]nc(-c3ccc(F)c(Cl)c3)c2c1 | 77% |
| CS(=O)(=O)c1ccc(-c2n[nH]c3ccc(NS(=O)(=O)c4ccccc4S(C)(=O)=O)cc23)cc1 | 75% |
| Cc1cccc(-c2n[nH]c3ccc(NS(=O)(=O)c4ccccc4S(C)(=O)=O)cc23)c1 | 71% |
| CS(=O)(=O)c1ccccc1S(=O)(=O)Nc1ccc2[nH]nc(-c3ccc(OC(F)(F)F)cc3)c2c1 | 61% |
| O=[N+]([O-])c1ccccc1S(=O)(=O)Nc1ccc2[nH]nc(-c3ccccc3)c2c1 | 81% |
| CS(=O)(=O)c1ccccc1S(=O)(=O)Nc1ccc2[nH]nc(-c3ccc(OCc4ccccc4)cc3)c2c1 | 16% |
| CC(C)(C)c1ccc(-c2n[nH]c3ccc(NS(=O)(=O)c4ccccc4S(C)(=O)=O)cc23)cc1 | 0% |
| Cc1ccc(-c2n[nH]c3ccc(NS(=O)(=O)c4ccccc4S(C)(=O)=O)cc23)cc1F | 70% |
| O=S(=O)(Nc1ccc2[nH]nc(-c3ccccc3)c2c1)c1ccc2ccccc2c1 | 78% |
| CS(=O)(=O)c1ccccc1S(=O)(=O)Nc1ccc2[nH]nc(C#Cc3ccccc3)c2c1 | 90% |
| O=S(=O)(Nc1ccc2[nH]nc(-c3ccccc3)c2c1)c1ccccc1OC(F)(F)F | 74% |
| CC(=O)Nc1ccc(S(=O)(=O)Nc2ccc3[nH]nc(-c4ccccc4)c3c2)cc1 | 73% |
| O=S(=O)(Nc1ccc2[nH]nc(-c3ccccc3)c2c1)c1cccc2nonc12 | 67% |
| COC(=O)c1cccc(-c2n[nH]c3ccc(NS(=O)(=O)c4ccccc4S(C)(=O)=O)cc23)c1 | 64% |
| COc1ccc(-c2n[nH]c3ccc(NS(=O)(=O)c4ccccc4S(C)(=O)=O)cc23)cc1OC | 76% |
| CS(=O)(=O)c1ccccc1S(=O)(=O)Nc1ccc2[nH]nc(-c3cccc(O)c3)c2c1 | 73% |
| O=[N+]([O-])c1ccc(S(=O)(=O)Nc2ccc3[nH]nc(-c4ccccc4)c3c2)cc1 | 50% |
| CS(=O)(=O)c1ccccc1S(=O)(=O)Nc1ccc2[nH]nc(-c3ccc(F)cc3F)c2c1 | 83% |
| CS(=O)(=O)c1ccccc1S(=O)(=O)Nc1ccc2[nH]nc(-c3cccc(OCc4ccccc4)c3)c2c1 | 0% |
| CS(=O)(=O)c1ccccc1S(=O)(=O)Nc1ccc2[nH]nc(-c3cccc4c3oc3ccccc34)c2c1 | 13% |
